In data set [1] the test system is HG-3 cells. Nature of the data set: alamarBlue cell viability assay. The note with it: for IC50: read-out: HG-3 IC50.
Data set [2] concerns HG-3 cells. The data set can be described thus: Annexin V/PI apoptosis assay (FACS). The class given is cell-based, human. As for the experimental part:
(§1) The pro-apoptotic effects of selected nitrovinylethanoanthracene compounds 20a and 20f and anthracene chalcones 23a and 25n in HG-3 cells and PGA-1 cells was then investigated using FITC (fluorescein isothiocyanate), Annexin V/PI (propidium iodide) and FACS (fluorescence-activated cell sorting) analysis to characterize the mode of cellular death induced. Apoptosis was assessed as % total apoptosis (total of early (Q3) and late (Q2) apoptosis).
(§2) CLL cells PGA-1 and HG-3 (1 × 10^6 cells/mL) were treated at 37 °C with either the vehicle (1% (v/v) DMSO) or the ethanoanthracene compounds 20a, 20f, 23a and 25n (10 µM, 5 µM and 1 µM) for 48 h, following the protocol previously described. The cells were then harvested via centrifugation at 400× g in a temperature-controlled Sorvall centrifuge. The cells were rinsed with Ca^2+ Annexin-V-binding buffer (0.1 M HEPES, pH 7.4; 0.14 M NaCl; 25 mM CaCl2, 0.5 mL). The samples were resuspended in FITC Annexin V (diluted 1:33 in Ca^2+ Annexin V-binding buffer, 50 µL) and incubated for 10 min (on ice and protected from light). The samples were washed with Annexin-V-binding buffer and resuspended in a PI solution (0.5 µg/mL, 500 µL) and analyzed within 1 h using a BD Accuri C6 flow cytometer counting 10,000 cells using the FlowJo software Version 10 (FlowJo LLC, Ashland, OR, USA).

Data set [3] has as its system PGA-1 cells. The data set can be described thus: Annexin V/PI apoptosis assay (FACS). In kind it is cell-based, human. As for the experimental part:
as §1, §2

The subject of data set [4] is HG-3 cells. The data set can be described thus: LDH cytotoxicity assay (CytoTox 96). The class given is cell-based. The note with it: 24 h. An excerpt:
(§3) The lactate dehydrogenase (LDH) assay is used to assess the membrane integrity of cells as a function of the cytoplasmic LDH released. The loss of cell membrane integrity (due to cytotoxic insult) is detectable through LDH release into the cell growth medium. The assay is initiated via the reduction in cellular co-factor NAD^+ to NADH catalyzed via the LDH enzyme. Newly formed NADH catalyzes the acidic reduction in iodonitrotetrazolium chloride (INT) to the highly colored formazan (red) (mediated via the diaphorase enzyme). […] At the 10-µM treatment concentration, mild to moderate cytotoxicity (19–47%) was observed. […] Cytotoxicity remained low to mild at 1 µM (4–18%) with 23a displaying the lowest LDH release (4%).
(§4) Following the treatment of the HG-3 and PGA-1 cells at 10 µM for 24 hr, the amount of LDH released was determined using an LDH assay kit from Promega (G1780). Cell lysis solution = 100% cell lysis and LDH release). Data are presented as % cell death at a concentration of 10 µM. Cells were treated with ethanoanthracene compounds 20a, 20f, 23a and 25n (1 µM and 10 µM) for 24 h. Values are shown as the mean of three independent experiments.
(§5) The cytotoxicity of the selected compounds 20a, 20f, 23a and 25n was determined using the CytoTox 96 non-radioactive cytotoxicity assay (Promega Corporation; 2800 Woods Hollow Road, Madison, WI, USA). CLL cells HG-3 and PGA-1 were incubated for 24 h and then treated with the selected compounds 20a, 20f, 23a and 25n at 10-µM and 1-µM concentrations, following the protocol outlined above in the cell viability assay. After 24 h, the lysis solution (10×) (20 µL) was added, and the cells were incubated for a further 1 h to ensure complete cell death. Supernatant (50 µL) was removed from each well and transferred to a clean 96-well plate. “Substrate mix” (50 µL) was added, and the plate was stored in the dark at 20 °C for 30 min. “Stop solution” (50 µL) was added to each well, and the absorbance at 490 nm was recorded using a Dynatech MR5000 plate reader; the % cell death was determined relative to the control cell lysis solution.

The subject of data set [5] is PGA-1 cells. Nature of the data set: LDH cytotoxicity assay (CytoTox 96). In kind it is cell-based. The note with it: PGA-1, 10 µM, 24 h.
From the text: as §3, §4, §5

Data set [6] has as its system PGA-1 cells. Nature of the data set: alamarBlue cell viability assay. The note with it: for IC50: read-out: PGA-1 IC50.
In the next data set the test system is HL-60(TB). The data set can be described thus: NCI-60 five-dose assay. The class given is cell-based, human. The note with it: HL-60(TB).
For another data set, the system named is K-562. Nature of the data set: NCI-60 five-dose assay. In kind it is cell-based, human. The note with it: K-562.
The subject of the next data set is leukemia cell panel. Nature of the data set: NCI-60 five-dose assay, leukemia cell panel mean. The class given is cell-based, human. The note with it: mean across the six leukemia cell lines.
The test system of data set [7] is HG-3 and PGA-1 cell lines. The data set can be described thus: alamarBlue cell viability assay, mean of both CLL cell lines. The class given is cell-based, human. As to conditions: mean of HG-3 and PGA-1. On the technique in general: The colour change of resazurin is a common sign of viable cells or microbes.
The next data set concerns melanoma cell lines. The data set can be described thus: NCI-60 five-dose assay, melanoma cell lines. In kind it is cell-based, human. The note with it: range over melanoma cell lines. As for the experimental part:
(§6) A number of our most promising compounds identified through preliminary cell viability testing (23c, 23d, 23f, 23h, 23l, 23m, 23n, 23o, 24f, 24l, 25n and 26n) were selected for NCI drug screening in the 60-cell-line panel. The panel includes nine subcategories based on cancer tissue types, which include leukemia, ovarian, central nervous system, breast, lung, prostate, skin, renal and colon cancer. The compounds were initially assessed in a one-dose assay at a fixed treatment concentration of 10 µM. The compounds selected for further investigation were progressed to a five-dose assay across the concentration ranges of 0.01, 0.1, 1, 10 and 100 µM [72]. The endpoints assessed in the screening protocol were GI50, TGI and LC50 [72].

A further data set has as its system CCRF-CEM. Nature of the data set: NCI-60 five-dose assay. In kind it is cell-based, human.
Data set [8] has as its system NCI 60 cancer cell line panel. Nature of the data set: NCI-60 five-dose assay, full-panel means. The class given is cell-based. The procedure: as §6
The next data set relates to RPMI-8226. The data set can be described thus: NCI-60 five-dose assay. In kind it is cell-based, human. The note with it: RPMI-8226.
Data set [9] is described as follows: HPLC stability study in phosphate buffers. The class given is physicochemical. The method, boiled down: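 Compound stock (5 mg in 10 mL 80:20 acetonitrile–water) added to phosphate buffers at pH 4, 7.4 and 9 and held at 37 °C. Sampled over 24 h (0 min to 24 h) and analysed by C18 HPLC with UV detection at 254 nm; single experiments.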
The test system of data set [10] is HG-3 cells. The note with it: 10 µM.
The test system of the next data set is SR. Nature of the data set: NCI-60 five-dose assay. In kind it is cell-based, human.
In a further data set the test system is MOLT-4. Nature of the data set: NCI-60 five-dose assay. As to conditions: MOLT-4. In kind it is cell-based, human.

Values joined by “and” are separate entries in the source; they are usually repeats but may differ in a detail not shown here. Equal entries are not always repeated. Where two headings read alike, the source gives them in different places.

As usually defined, the IC50 is the midpoint of a concentration-inhibition curve. For orientation: viability means a per cent measure of how many cells are alive, often set against a control. For the molecule `O=C1C2C3c4ccccc4C(C=C[N+](=O)[O-])(c4ccccc43)C2C(=O)N1CCCCCCN1C(=O)C2C3c4ccccc4C(C=C[N+](=O)[O-])(c4ccccc43)C2C1=O` (centres unmarked) [Compound 20f], the “potency relative to fludarabine control” value in the data set with HG-3 cells [1] (HG-3, IC50 ratio) was 165 fold; in the data set on PGA-1 cells [6] (PGA-1, IC50 ratio), 91 fold. In addition, the IC50 in the data set on HG-3 cells [1] (Homo sapiens, HG-3, 24 h) is 170 nM; with PGA-1 cells [6] (Homo sapiens, 24 h), 350 nM. Also, the viability at 10 µM is 14 to 43% in the data set on HG-3 cells [1] (Homo sapiens, HG-3, 24 h, read-out: cell viability) and 17% with PGA-1 cells [6] (Homo sapiens, 24 h, read-out: cell viability). The “total apoptosis (early Q3 + late Q2)” value with HG-3 cells [2] (HG-3, 1 µM) was 82%; with HG-3 cells [2] (HG-3, 10 µM), 82–95% and 82%; in the data set on PGA-1 cells [3] (PGA-1, 1 µM) it was 76%; in the data set on PGA-1 cells [3] (PGA-1, 10 µM), 87–97% and 88%. In addition, the “LDH release (cytotoxicity, % cell death)” value is listed as 12% in the data set on HG-3 cells [4] (HG-3, 1 µM); 19% with HG-3 cells [4] (HG-3, 10 µM, lysis solution = 100%); 19% in the data set with PGA-1 cells [5].

As usually defined, the GI50 is the concentration at which growth is held to half of that of the control. The CC50 is the concentration at which the toxic effect on the cells reaches its halfway point. Read a low CC50 as harm at low concentration. By cell viability is commonly meant the share of living cells, or the viability signal relative to a control. On to `O=C(/C=C/C12c3ccccc3C(c3ccccc31)C1C(=O)NC(=O)C12)c1ccccn1` (centres unmarked) [Compound 23n], for which the GI50 in the data set with HL-60(TB) was 1020 nM; with K-562 it was 1370 nM; in the data set with leukemia cell panel it was 1320 nM; in the data set with melanoma cell lines, 1120 to 2140 nM; in the data set with CCRF-CEM, 1440 nM; in data set [8] (mean over NCI 60 cell line panel, read-out: Mean GI50 (MID GI50, full-panel mean-graph mid-point)), 1660 nM. Also, the figures for the GI50 in the data set on RPMI-8226, in the data set on SR and with MOLT-4 were 1220 nM, 780 nM and 2110 nM, respectively. Also, the IC50 in data set [7] is 1940 nM; in the data set with HG-3 cells [1] (HG-3, 24 h) it was 2390 nM; with PGA-1 cells [6] (PGA-1, 24 h), 1480 nM. In data set [8], this molecule gave a CC50 of 14800 nM. For the same molecule, the “Mean TGI (MID TGI, total growth inhibition)” value in data set [8] (mean over NCI 60 cell line panel) was found to be 4570 nM. In [9] (pH 4 buffer, 37 °C), the “Half-life pH 4” value is listed as 19 h. In addition, the “% remaining 24 h pH 4” value in data set [9] (pH 4 buffer, 37 °C, 24 h, HPLC) is 39% and 38.86%. Besides, in [9] (pH 7.4 buffer, 37 °C), the “Half-life pH 7.4” value is recorded as more than 24 h. Also, the “% remaining 24 h pH 7.4” value in data set [9] (pH 7.4 buffer, 37 °C, 24 h, HPLC) was 70% and 70.29%. In data set [9] (pH 9.0), the “decrease in compound concentration over 24 h” value is recorded as 11%. Also, the “Half-life pH 9” value in data set [9] (pH 9 buffer, 37 °C) was more than 24 h. Besides, the “% remaining 24 h pH 9” value in data set [9] (pH 9 buffer, 37 °C, 24 h, HPLC) was 89% and 88.59%. Moreover, the cell viability in the data set on HG-3 cells [10] stood at 2%.

The values above are taken from paper PMC11359702, “Synthesis and Biochemical Evaluation of Ethanoanthracenes and Related Compounds: Antiproliferative and Pro-Apoptotic Effects in Chronic Lymphocytic Leukemia (CLL)” (Pharmaceuticals, 2024).
